Results reported in US5506102A (priority 1993, dated 1996).

What was measured:
PR-B = target: T1, PR-B (Homo sapiens, UniProt P06401); assay: Direct inhibition of PR-B transcriptional activity, CV-1 cells; format: cell-based; design: expressed in transfected cells; host or cells: CV-1, HepG2 (PRE2 tk-LUC); HeLa, also HepG2 and CV-1 (TAT promoter); conditions: read-out: IC50 (50% maximal Inhibitory concentration), transcriptional activity of PR-B; in the presence of 10^-8 progesterone
T1 sequence (P06401 1-933): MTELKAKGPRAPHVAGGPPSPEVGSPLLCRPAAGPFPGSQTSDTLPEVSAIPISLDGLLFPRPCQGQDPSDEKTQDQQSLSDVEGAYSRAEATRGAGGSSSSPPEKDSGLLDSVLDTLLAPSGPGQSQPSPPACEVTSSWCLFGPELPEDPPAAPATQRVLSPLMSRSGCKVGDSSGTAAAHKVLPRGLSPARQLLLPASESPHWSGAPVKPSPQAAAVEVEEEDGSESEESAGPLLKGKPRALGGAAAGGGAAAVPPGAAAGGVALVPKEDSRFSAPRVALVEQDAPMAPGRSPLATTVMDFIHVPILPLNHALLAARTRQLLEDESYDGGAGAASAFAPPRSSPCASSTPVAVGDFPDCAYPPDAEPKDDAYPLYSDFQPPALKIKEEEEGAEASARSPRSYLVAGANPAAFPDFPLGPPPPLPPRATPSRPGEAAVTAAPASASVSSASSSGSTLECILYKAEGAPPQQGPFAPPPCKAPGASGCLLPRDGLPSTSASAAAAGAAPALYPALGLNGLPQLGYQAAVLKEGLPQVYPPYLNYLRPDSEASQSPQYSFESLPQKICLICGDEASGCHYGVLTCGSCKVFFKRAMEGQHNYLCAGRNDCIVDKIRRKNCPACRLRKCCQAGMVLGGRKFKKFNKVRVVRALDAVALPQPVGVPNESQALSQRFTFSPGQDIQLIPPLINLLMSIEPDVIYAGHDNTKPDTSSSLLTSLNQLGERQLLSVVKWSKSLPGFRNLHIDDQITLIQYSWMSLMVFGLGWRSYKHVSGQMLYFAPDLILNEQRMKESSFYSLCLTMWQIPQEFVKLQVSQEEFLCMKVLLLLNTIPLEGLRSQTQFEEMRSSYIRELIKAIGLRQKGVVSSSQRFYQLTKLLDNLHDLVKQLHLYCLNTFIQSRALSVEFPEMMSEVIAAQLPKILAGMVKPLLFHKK

[1] = target: T2, human progesterone receptor isoform PR-A (Homo sapiens, UniProt P06401); assay: PR-A transactivation of MMTV-LUC reporter, transient transfection; format: cell-based; conditions: 10^-7 M progesterone
T2 sequence (P06401 165-933): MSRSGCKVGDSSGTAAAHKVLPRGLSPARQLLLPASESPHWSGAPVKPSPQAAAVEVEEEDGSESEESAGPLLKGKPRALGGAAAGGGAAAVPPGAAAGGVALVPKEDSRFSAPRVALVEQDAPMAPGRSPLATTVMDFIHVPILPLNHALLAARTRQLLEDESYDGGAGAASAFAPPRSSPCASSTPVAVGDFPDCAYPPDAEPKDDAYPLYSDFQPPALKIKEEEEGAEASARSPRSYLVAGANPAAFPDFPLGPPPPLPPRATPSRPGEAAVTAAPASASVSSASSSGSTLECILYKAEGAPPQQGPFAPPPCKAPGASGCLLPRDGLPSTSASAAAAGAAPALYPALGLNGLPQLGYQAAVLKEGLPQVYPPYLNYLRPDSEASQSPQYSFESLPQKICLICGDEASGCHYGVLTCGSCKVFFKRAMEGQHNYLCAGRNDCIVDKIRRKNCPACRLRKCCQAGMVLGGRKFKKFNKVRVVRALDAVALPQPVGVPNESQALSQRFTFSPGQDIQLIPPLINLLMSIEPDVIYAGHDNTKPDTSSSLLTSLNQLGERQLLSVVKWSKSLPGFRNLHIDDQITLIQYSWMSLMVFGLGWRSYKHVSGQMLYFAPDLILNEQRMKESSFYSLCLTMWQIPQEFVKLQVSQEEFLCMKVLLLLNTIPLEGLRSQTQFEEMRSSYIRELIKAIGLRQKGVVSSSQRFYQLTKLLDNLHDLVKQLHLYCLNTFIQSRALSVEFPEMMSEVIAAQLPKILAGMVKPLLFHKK
Description: Cells were seeded in 12-well, 96-well or 10 cm tissue culture plates. […] 20 μg of DNA/ml of transfection buffer were used in each transfection reaction. In this mix, the concentration of the luciferase plasmids and that of the internal control plasmid pCH110 (Pharmacia, Inc.), which contains the gene for the β-galactosidase enzyme, remained constant ([…] of each plasmid DNA), while the receptor plasmid concentration varied as indicated for each experiment. Different amounts of receptor parental plasmid, pSV2-neo (Dr. Bert O'Malley, Baylor College of Medicine, Houston, Tex.) was included to keep constant the total amount of the SV40 enhancer vectors. pGEM4 plasmid DNA (Promega Biotech, Madison, Wis.) was added to balance the total DNA concentration to 20 g/reaction. For the 96-well plate experiments, transfections were performed on a Biomek 1000 Automated Laboratory Workstation (Beckman Instruments, Fullerton, Calif.).
Cells were seeded 24 hours prior to transfection in the fiat-bottom tissue culture plates ([…]) in phenol red-free DMEM containing 10% FCS. […] Using calcium phosphate co-precipitation, DNA solution was added dropwise with vortexing into an equal volume of 2X HBS pH 6.9 (280 mM NaCl. 50 mM HEPES, 1.5 mM Na2 HPO4) and precipitates were allowed to form for 20 minutes. Cells were transfected ( […] of DNA mix/well) for 6 hours and then washed with phosphate-bufferedsaline (PBS) to remove the precipitate. Cells were incubated for an additional 24 hours in phenol red-free medium containing 10% charcoal-treated FCS, with or without hormones as indicated in the text. Cell extracts were prepared as described by Berger et al., Supra, and assayed for luciferase and β-galactosidase activities. All determinations were performed in triplicates in at least two independent experiments, and were normalized for transfection efficiency by using β-galactosidase as an internal control.

Row | IC50 (PR-B) [pM] | SMILES | progesterone-induced activation of the MMTV promoter by PR-A ([1]; CV-1 cells, FIG. 2A) | maximal induction ([1]; HeLa cells, MMTV, 250 ng of transfected DNA, FIG. 2B) | activation of the MMTV promoter by PR-A ([1]; HepG2 cells, FIG. 2C)
1 | 600 | CC#C[C@]1(O)CC[C@H]2[C@@H]3CCC4=CC(=O)CCC4=C3[C@@H](c3ccc(C(C)=O)cc3)C[C@@]21C [ZK112993] | – | – | –
2 | – | CC(=O)[C@H]1CC[C@H]2[C@@H]3CCC4=CC(=O)CC[C@]4(C)[C@H]3CC[C@]12C [progesterone] | no progesterone-induced activation of the MMTV promoter by PR-A was observed | ten-fold | both PR-A and PR-B functioned as efficient activators
